The source of these data is patent US20060068444A1, “Compositions and methods for detecting cyclic analogs of hPTH” (Zelos Therapeutics, Inc, priority 2004, published 2006).

Positions of bridges follow the written chain, without caps; N, C: chain ends. No end group written: not given here.

For experiment [1], the system named is antibodies which have binding specificity for cyclic analogs of hPTH (HRP-labeled anti-C-terminal antibody plus biotinylated anti-N-terminal antibody). The experiment can be described thus: two-site sandwich ELISA for [Leu^27]cyclo(Glu^22-Lys^26)hPTH-(1-31). More on the design: species or system rabbit. As to conditions: for detection in the two-site sandwich ELISA (cross-reaction), OD at 450 nm: peptides at 10,000, 1,000 and 100 pg/ml in BSA based buffer matrix, FIG. 3. Here is the method:
Streptavidin was weighed and diluted to 20 mg/L with phosphate buffer, 0.2 ml of this solution was added to each well of Corning® 96 Well Polystyrene Microplate. The plates were incubated at room temperature for 18-22 hours. The plates were then washed and a stabile/blocking buffer containing BSA was added. The plates were again incubated at room temperature for four hours. The plates were finally dried at <30% humidity. […] The peptide was diluted with a bovine serum albumin and normal bovine serum based buffer matrix to a final concentration of 1600 pg/ml, 400 pg/ml, 100 pg/ml, 25 pg/ml and 6 pg/ml. […] The above antigen and antibodies were incubated in the streptavidin coated well for 3 hours at room temperature with shaking at 170 rpm. After incubation, each well was washed with an ELISA wash buffer. 200 μL of tetra methyl benzidine (TMB) was then added into each well. The wells were incubated for 20 min at room temperature and then 100 μL of a stop solution was added into each well. The Microplates were read with a microtiter plate reader (VERSAmaxTM, Molecular Device, Inc.) at an absorption wavelength of 450 nm. A standard curve was obtained by plotting the optical density (OD) at 450 nm against the correspondent Ostabolin-C standard concentration. […] The OD at 450 nm values were read by a microtiter plate reader ([…], Molecular Device, Inc.) (FIG. 3).
(In general: An ELISA detects its analyte on a solid surface through an enzyme-linked reagent.)

The subject of another experiment is adenylyl cyclase (AC). As to conditions: cited from earlier work.
A further experiment deals with ovariectomized rat model. As to conditions: cited from earlier work.

On to hPTH-(1-34), for which the “detection in the two-site sandwich ELISA (cross-reaction), OD at 450 nm” value (shortened to “detection in the two-site sandwich ELISA”) in experiment [1] is listed as “not able to detect”.

As to hPTH-(1-31), the “detection in the two-site sandwich ELISA” value in experiment [1] is reported as “not able to detect”.

For hPTH-(1-31)-NH2, the AC stimulating activity result in the experiment on adenylyl cyclase (AC) is “has only AC stimulating activity”. Besides, the “restoration of bone loss” value with ovariectomized rat model is on record as “fully active”.

For the substance hPTH-(1-84), the “detection in the two-site sandwich ELISA” value in experiment [1] is “not able to detect”.

As to “[Leu^27]cyclo(Glu^22-Lys^26)hPTH-(1-31) (SVSEIQLMHNLGKHLNSMERVEWLRKLLQDV-NH2; lactam 22-26; N-terminus assumed; SMILES CC[C@H](C)[C@H](NC(=O)[C@H](CCC(=O)O)NC(=O)[C@H](CO)NC(=O)[C@@H](NC(=O)[C@@H](N)CO)C(C)C)C(=O)N[C@@H](CCC(N)=O)C(=O)N[C@@H](CC(C)C)C(=O)N[C@@H](CCSC)C(=O)N[C@@H](Cc1c[nH]cn1)C(=O)N[C@@H](CC(N)=O)C(=O)N[C@@H](CC(C)C)C(=O)NCC(=O)N[C@@H](CCCCN)C(=O)N[C@@H](Cc1c[nH]cn1)C(=O)N[C@@H](CC(C)C)C(=O)N[C@@H](CC(N)=O)C(=O)N[C@@H](CO)C(=O)N[C@@H](CCSC)C(=O)N[C@@H](CCC(=O)O)C(=O)N[C@@H](CCCNC(=N)N)C(=O)N[C@H](C(=O)N[C@H]1CCC(=O)NCCCC[C@@H](C(=O)N[C@@H](CC(C)C)C(=O)N[C@@H](CC(C)C)C(=O)N[C@@H](CCC(N)=O)C(=O)N[C@@H](CC(=O)O)C(=O)N[C@H](C(N)=O)C(C)C)NC(=O)[C@H](CCCNC(=N)N)NC(=O)[C@H](CC(C)C)NC(=O)[C@H](Cc2c[nH]c3ccccc23)NC1=O)C(C)C) [cyclic analog of hPTH, cyclized between Glu^22 and Lys^26]”, the “standard curve, optical density (OD) at 450 nm against standard concentration” value in experiment [1] (peptide standards 1600, 400, 100, 25 and 6 pg/ml, FIG. 2) is given as “dose responsive standard curve”. In experiment [1], the “detection in the two-site sandwich ELISA” value is listed as “dose responsive manner”.
